# Assay results taken from US9795580B2, “Ketone supplements for treatment of angelman syndrome” (priority 2015, dated 2017).
# Entries after “also recorded” stand apart in the source; their conditions may differ.
# Columns and labels:
# Ube3a-deficient mice [1] = assay: Associative fear conditioning; format: in vivo; settings: AS mice
# Description: (§1) Mice. Mice with the UBE3A null mutation (AS) were described previously (Jiang Y H et al., Neuron, 1998, 21(4):799-811). All experiments were performed on mice that have been backcrossed to the C57BL/6 line (Jackson Labs, Bar Harbor, Me.) for at least 5 generations. Female C57BL/6 mice containing the null mutation were bred with C57BL/6 (WT) males to produce maternally-deficient AS offspring and WT littermate controls. Audiogenic seizure experiments were performed on mice with the 129/SvEv background, with the same breeding scheme as the C57BL/6 mice. Animals were kept on a 12 hour light-dark cycle and food and water provided ad libitum. All animal testing procedures were approved by the Institutional Animal Care and Use Committee of the University of South Florida and followed the NIH guidelines for the care and use of laboratory animals.
# (§2) Ketone ester administration. Control mice received standard rodent chow fed ad libitum. Mice receiving the ketone supplement were administered BD-AcAc2 with their standard rodent chow ad libitum.
# Associative fear conditioning. Fear conditioning was used to assess hippocampal function and associative learning and memory. Training included 2 shock-tone (CS/US) pairings. Detailed methods have been previously described (Trotter, J. et al., The Journal of Neuroscience, 2013, 33(39):[…]). […]
# Ube3a-deficient mice [2] = assay: Rotarod testing; format: in vivo; settings: AS mice, treated vs AS littermate controls
# Description: as §1, §2
# Rotarod testing. Mice were placed on a rotating rod (Rotarod, Ugo Basile, Italy) that accelerated from 4 to 40 rpm. For two consecutive days, four trials were performed per day with a 45-60 min interval between trials. The maximum duration of each trial was 5 minutes. The time that the mice fell off the rod was recorded. […]
# Ube3a-deficient mice [3] = assay: Novel object recognition; format: in vivo; settings: AS mice, 24 hours following training
# Description: as §1, §2
# Novel Object Recognition. Novel object recognition was used to evaluate recognition memory. Following habituation to an open field arena, mice were allowed to explore the arena containing two identical objects for 15 minutes. 24 hours following training, a novel object replaced one of the old objects and mice were allowed to explore for 5 minutes.
# [4] = Chronic feeding of ketone supplements: weight and caloric intake; format: in vivo, Sprague Dawley rats; settings: for Approximate caloric intake compared to controls: rats, following adaptation to diet (weeks 13-15)
# Source text: (§3) Male Sprague Dawley rats (N=10/group) were fed ad libitum (approximate dose based on food intake recorded during study) for the study duration (15 weeks).
# (§4) Measured Parameters: • Weight • Food/calorie intake • Blood glucose • Blood ketones • Triglycerides • Total Cholesterol • HDL • LDL • Safety/toxicity—serum clinical chemistry tests for kidney and liver function Inflammatory Profile: […]
# [5] = Blood glucose and ketone levels in AS mice; format: in vivo; settings: for blood ketones: AS mice on KE diet vs WT and AS controls; for blood glucose: AS mice on KE diet vs WT and AS mice on control diet
# Description: as §2
# Blood glucose and ketone levels. Blood was collected from the tip of the tail weekly using the Precision Xtra system with both glucose and ketone test strips, each requiring 0.6 μL samples.
# (§5) The inventors hypothesized that supplemental ketone administration would decrease seizure frequency, increase seizure threshold, and improve hippocampal-dependent cognition and motor learning deficiencies.
# Ube3a-deficient mice [6] = assay: Kainic acid-induced seizures; format: in vivo; settings: kainic acid 20 mg/kg i.p.; 10 and 45 minutes post-administration; AS treated vs AS control
# Description: as §1, §2
# Kainic acid injections. Mice were injected with 20 mg/kg of kainic acid i.p. and were monitored for seizure activity for 45 minutes and behavioral seizure score was recorded (modified Racine's scale).
# [7] = Group weights of AS mice on ketone ester diet; format: in vivo; settings: 10% BD-AcAc2 in chow ad libitum, 8 weeks, vs AS controls
# Description: as §1, §2, §5
# Ube3a-deficient mice [8] = assay: Induced audiogenic seizures; format: in vivo; settings: for latency to seize: AS treated vs AS control mice, audiogenic seizures
# Description: as §1, §2
# Induced audiogenic seizures. Seizures were induced by exposing mice to a 120-dB white noise in a sound-attenuated chamber until seizures occurred or for a maximum of 60 s. Both seizure frequency and threshold (time until seizures began) were recorded.
# [9] = test system: kidney and liver function; assay: Chronic feeding of ketone supplements: serum clinical chemistry for kidney and liver function; format: in vivo, Sprague Dawley rats; design: key: ns = no change from control; settings: rat serum, 15 weeks, vs SD-fed control
# Source text: as §3, §4
# [10] = test system: serum cytokines/chemokines; assay: Chronic feeding of ketone supplements: serum inflammatory profile; format: in vivo, Sprague Dawley rats; design: key to MIP-1a, change from control / IL-4, change from control / IL-1b, change from control / IL-2, change from control / IL-10, change from control / IFNy, change from control / IL-5, change from control / IL-17a, change from control / IL-18, change from control / MCP-1, change from control / IP-10, change from control / GRO/KC, change from control / VEGF, change from control / LIX, change from control / MIP-2, change from control / TNF-a, change from control / RANTES, change from control / G-CSF, change from control / GM-CSF, change from control / IL-1a, change from control / Leptin, change from control: ↑: Increased from control; ↓: Decreased from control; —: no change; T: Trend towards significance; *p < 0.05; **p < 0.01; ***p < 0.001; settings: rat serum, 15 weeks
# Source text: as §3, §4
# [11] = listed as ketone ester supplement
compound,measurement,setting,value
"CC(=O)CC(=O)OCCC(C)OC(=O)CC(C)=O (stereo not drawn) [BD-AcAc2, R,S-1,3-butanediol acetoacetate diester]",contextual fear conditioning (hippocampal-dependent learning),Ube3a-deficient mice [1]; 24 hours after training,improves hippocampal-dependent learning
same,fear conditioning training phase (freezing),Ube3a-deficient mice [1]; training phase,does not affect the fear conditioning training phase
same,rotarod performance,Ube3a-deficient mice [2],increases rotarod performance
same,novel object recognition memory,Ube3a-deficient mice [3],enhances novel object recognition memory
same,food consumption / caloric intake,"[4]; male Sprague Dawley rats, fed ad libitum 15 weeks",adjusted food consumption to regulate caloric intake to a large extent
same,blood ketones,[5]; listed as KE,elevated ketones
same,blood ketones,[5]; [11],increases blood ketone levels
same,blood glucose,[5]; listed as KE,decreased blood glucose
same,blood glucose,[5]; [11],decreases blood glucose
same,behavioral seizure score (modified Racine's scale),Ube3a-deficient mice [6],significant decrease in behavioral seizure score
same,body weight / weight gain,[7],normalizes body weight
same,body weight / weight gain,[7]; [11],normalizes weight
same,audiogenic seizure activity,"Ube3a-deficient mice [8]; AS mice after 8 weeks on the diet, listed as ketone ester",decreased; also recorded: decreases seizure activity
same,audiogenic seizure frequency,"Ube3a-deficient mice [8]; AS treated group after 8 weeks on the diet, 120-dB white noise",86%
same,latency to seize,Ube3a-deficient mice [8],increases latency to seize
same,latency to seize,Ube3a-deficient mice [8]; listed as ketone ester,increased
CC(=O)CC(=O)OCCC(C)OC(=O)CC(C)=O (racemic) [HKE],Approximate caloric intake compared to controls,[4],~−7 % kcal
same,Alanine Aminotransferase (ALT),[9],Ns
same,Albumin,[9],Ns
same,Alkaline Phosphatase (ALP),[9],Ns
same,Blood Urea Nitrogen (BUN),[9],Ns
same,Calcium,[9],Ns
same,Chloride,[9],Ns
same,Cholesterol,[9],Ns
same,Creatinine,[9],Ns
same,Gamma Glutamyltransferase (GGT),[9],Ns
same,Globulin,[9],Ns
same,Glucose,[9],Ns
same,Phosphorous,[9],Ns
same,Potassium,[9],Ns
same,Sodium,[9],Ns
same,Total Bilirubin,[9],Ns
same,Total Protein,[9],Ns
same,"Eotaxin, change from control",[10],↓**
same,"Fractalkine, change from control",[10],↑*
same,"G-CSF, change from control",[10],↓T
same,"GM-CSF, change from control",[10],—
same,"GRO/KC, change from control",[10],↓T
same,"IFNy, change from control",[10],↓*
same,"IL-1a, change from control",[10],↓*
same,"IL-1b, change from control",[10],↓*
same,"IL-2, change from control",[10],↓T
same,"IL-4, change from control",[10],—
same,"IL-5, change from control",[10],↓*
same,"IL-6, change from control",[10],↓*
same,"IL-10, change from control",[10],↓T
same,"IL-12(p70), change from control",[10],↓*
same,"IL-13, change from control",[10],↓**
same,"IL-17a, change from control",[10],—
same,"IL-18, change from control",[10],↓T
same,"IP-10, change from control",[10],↓***
same,"LIX, change from control",[10],↓*
same,"Leptin, change from control",[10],↓*
same,"MCP-1, change from control",[10],↓T
same,"MIP-1a, change from control",[10],—
same,"MIP-2, change from control",[10],—
same,"RANTES, change from control",[10],↓**
same,"TNF-a, change from control",[10],—
same,"VEGF, change from control",[10],—
CC(=O)CC(=O)OCCC(C)OC(=O)CC(C)=O (racemic) [LKE],Approximate caloric intake compared to controls,[4],~+10 % kcal
same,Alanine Aminotransferase (ALT),[9],ns
same,Albumin,[9],ns
same,Alkaline Phosphatase (ALP),[9],ns
same,Blood Urea Nitrogen (BUN),[9],ns
same,Calcium,[9],ns
same,Chloride,[9],ns
same,Cholesterol,[9],ns
same,Creatinine,[9],ns
same,Gamma Glutamyltransferase (GGT),[9],ns
same,Globulin,[9],ns
same,Glucose,[9],ns
same,Phosphorous,[9],ns
same,Potassium,[9],ns
same,Sodium,[9],ns
same,Total Bilirubin,[9],ns
same,Total Protein,[9],ns
same,"Eotaxin, change from control",[10],↓T
same,"Fractalkine, change from control",[10],↑**
same,"G-CSF, change from control",[10],—
same,"GM-CSF, change from control",[10],—
same,"GRO/KC, change from control",[10],—
same,"IFNy, change from control",[10],—
same,"IL-1a, change from control",[10],—
same,"IL-1b, change from control",[10],—
same,"IL-2, change from control",[10],—
same,"IL-4, change from control",[10],—
same,"IL-5, change from control",[10],—
same,"IL-6, change from control",[10],↓T
same,"IL-10, change from control",[10],—
same,"IL-12(p70), change from control",[10],↓*
same,"IL-13, change from control",[10],↓T
same,"IL-17a, change from control",[10],—
same,"IL-18, change from control",[10],—
same,"IP-10, change from control",[10],—
same,"LIX, change from control",[10],—
same,"Leptin, change from control",[10],—
same,"MCP-1, change from control",[10],—
same,"MIP-1a, change from control",[10],↑T
same,"MIP-2, change from control",[10],—
same,"RANTES, change from control",[10],—
same,"TNF-a, change from control",[10],—
same,"VEGF, change from control",[10],↑*
